This is an account of results in PubChem BioAssay (NCI).

Assay in all cases: DTP human tumour cell line panel, 48 h
Experiment [1] has as its system A498 renal.
The subject of experiment [2] is CAKI-1 renal.
The subject of experiment [3] is MOLT-4 leukemia.
The subject of experiment [4] is SF-268 CNS.
Experiment [5] deals with SK-MEL-28 melanoma.
For experiment [6], the system named is OVCAR-4 ovarian.
Experiment [7] deals with K-562 leukemia.
The subject of experiment [8] is SF-539 CNS.
For experiment [9], the system named is SF-295 CNS.
Experiment [10] has as its system T-47D breast.
The subject of experiment [11] is MALME-3M melanoma.
Experiment [12] has as its system HOP-62 NSCLC.
Experiment [13] concerns SNB-75 CNS.

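1) Cells in 96-well plates. 2) Compound, 48 h, 5 concentrations. 3) Linear interpolation between surrounding doses. 4) Unreached endpoint = highest concentration. Here, GI50 denotes the concentration required for 50% inhibition of growth. TGI denotes the concentration required for complete inhibition of growth.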

One may read the TGI as the concentration at which net growth stops. A lower TGI goes with more potent growth arrest. For the molecule `Cc1ccc(S(=O)(=O)c2[nH]cc(/C(=C\C3CCCCC3)[N+](=O)[O-])c2C2CCCCC2)cc1`, the TGI in experiment [1] amounted to 0.837 µM; in experiment [2], 0.531 µM; in [3] it was 0.94 µM; in experiment [4] it was 1.84 µM; in experiment [5], 2.75 µM; in [6], 1.28 µM. Moreover, the total growth inhibition concentration (TGI) in experiment [7] is 0.923 µM; in experiment [8], 2.46 µM; in experiment [9] it was over 20.6 µM; in [10], 1.29 µM; in [11], 1.62 µM; in [12] it was 3.71 µM. Moreover, the TGI in experiment [13] is 5.81 µM.

For the molecule `CC(=O)N(C(C)=O)c1ncc(-n2nc(-c3ccccc3)cc2-c2ccccc2)c(-c2ccccc2)n1`, the total growth inhibition concentration (TGI) in [1], in [2], in [3], in experiment [4], in experiment [5] and in experiment [6] was over 10 µM each time. In addition, the TGI in experiment [7], in [8], in [9], in [10], in experiment [11] and in experiment [12] was over 10 µM in each case. Moreover, the total growth inhibition concentration (TGI) in experiment [13] is over 10 µM.

For the molecule `O=c1[nH]nnc2c1sc1ncccc12`, the TGI in experiment [1], in [2], in experiment [3], in experiment [4], in [5] and in experiment [6] was over 100 µM in each case. The TGI in [7], in [8], in experiment [9], in experiment [10], in [11] and in [12] was over 100 µM throughout. The TGI in [13] was over 100 µM.

Regarding `CC1(C)OC(C(=O)Nc2cc3c4ccccc4ccc3c3ccccc23)C(C(=O)N2CCCCC2)O1` (stereo not given), the concentration for total growth inhibition (TGI) in [1] is over 100 µM; in experiment [2], over 54.6 µM; in experiment [3], over 23.9 µM; in experiment [4], over 100 µM; in experiment [5] it was over 100 µM; in experiment [6] it was over 100 µM. In addition, the TGI in [7], in experiment [8], in experiment [9], in [10], in experiment [11] and in experiment [12] was over 100 µM each time. In addition, the TGI in [13] was over 100 µM.

For `COC(=O)c1ccc(/C=C/c2cc(O)ccc2O)cc1`, the TGI in [1] was determined as 33 µM; in [2], 7.5 µM; in [3], 0.927 µM; in [4], 8.41 µM; in [5], 43.4 µM; in experiment [6] it was 15.9 µM. The TGI was 4.38 µM in experiment [7]; 6.65 µM in [8]; over 100 µM in experiment [9]; 5.32 µM in experiment [10]; 5.64 µM in experiment [11]; over 69.3 µM in experiment [12]. The molecule also yielded a concentration for total growth inhibition (TGI) in experiment [13] of 68.5 µM.

In the case of `Cc1c(O)ccc2c(O)c(NC(=O)c3ccc4c(c3)CCC(C)(C)O4)c(=O)oc12`, the TGI in experiment [1], in experiment [2], in experiment [3], in [4], in experiment [5] and in experiment [6] was over 100 µM throughout. In addition, the TGI in experiment [7], in experiment [8], in experiment [9], in [10], in [11] and in [12] was over 100 µM throughout. In experiment [13], this molecule returned a TGI of over 100 µM.

Take `Cc1ccc(-n2cnc(C(=N)C#N)c2N)cc1`: the TGI in experiment [1], in [2], in experiment [3], in experiment [4], in [5] and in experiment [6] was over 100 µM throughout. Further, the TGI in experiment [7], in experiment [8], in experiment [9], in [10], in experiment [11] and in experiment [12] was over 100 µM each time. This molecule gave a concentration for total growth inhibition (TGI) in experiment [13] of over 100 µM.

Turning to `CO/N=C(\C(=O)OC(=NC1CCCCC1)NC1CCCCC1)c1csc(NC(c2ccccc2)(c2ccccc2)c2ccccc2)n1`, the TGI in experiment [1], in experiment [2], in experiment [3], in [4], in experiment [5] and in [6] was over 10 µM each time. Besides, the TGI in experiment [7], in experiment [8], in [9], in [10], in [11] and in experiment [12] was over 10 µM throughout. The TGI in experiment [13] was over 10 µM.

On to `COC(=O)C1=C(C(=O)OC)N(c2ccc(OC)cc2[N+](=O)[O-])C(c2ccc(C)cc2)=CC1c1ccc(OC)cc1OC` (stereo not given), for which the TGI in [1] was 46.3 µM; in experiment [2], over 92.4 µM; in experiment [3], 55.2 µM; in [4] it was over 100 µM; in [5], over 100 µM; in [6], over 100 µM. Further, the TGI in experiment [7] was over 54.4 µM; in [8], 20.8 µM; in [9] it was over 100 µM; in experiment [10] it was over 93.3 µM; in [11], over 77.4 µM; in experiment [12], over 72.7 µM. The molecule also registered a TGI in [13] of over 87.7 µM.

For `CN(C)c1ccc(/C=c2/c3ccccc3n3c2c2c([n+]3C)CCCC2)cc1`, the TGI in experiment [1] is 0.92 µM; in [2], 4.8 µM; in experiment [3] it was 1.59 µM; in experiment [4], 1.6 µM; in experiment [5], 2.06 µM; in experiment [6] it was 4.58 µM. The total growth inhibition concentration (TGI) in experiment [7] was found to be 2.85 µM; in experiment [8] it was 1.42 µM; in experiment [9] it was 0.653 µM; in experiment [10], 0.362 µM; in experiment [11], 0.866 µM; in experiment [12] it was 1.58 µM. The molecule further came in with a TGI in experiment [13] of 0.265 µM.

Regarding `COC[C@@H](N=CC(C)(C)C)C(C)C`, the TGI in experiment [1], in [2], in experiment [3], in experiment [4], in experiment [5] and in [6] was over 100 µM in each case. Besides, the total growth inhibition concentration (TGI) in experiment [7], in experiment [8], in experiment [9], in experiment [10], in experiment [11] and in experiment [12] was over 100 µM in each case. The TGI in [13] is over 100 µM.

The term GI50 denotes the concentration at which growth is held to half of that of the control. Consider `Cc1ccnc2[nH]c(-c3ccc4ccccc4c3)cc(=O)c12`, for which the TGI was 4.87 µM in experiment [1]; 14.4 µM in [2]; over 100 µM in experiment [3]; 39.4 µM in [4]; 14.9 µM in experiment [5]; 4.45 µM in experiment [6]. In addition, the TGI turned out to be 6.52 µM in experiment [7]; 6.79 µM in [8]; 10.9 µM in experiment [9]; 34.6 µM in [10]; 18.6 µM in experiment [11]; 12.6 µM in experiment [12]. In [13], the total growth inhibition concentration (TGI) was determined as 4.6 µM. Moreover, the GI50 is 2.39 µM in [2] and 1.49 µM in experiment [9].

As for `CN1C(=O)c2ccccc2OC12C=Cc1c(ccc3ccccc13)O2` (stereo not given), the TGI is 44.9 µM in [1]; 33.3 µM in experiment [2]; 17.2 µM in [3]; 31.4 µM in experiment [4]; over 67.6 µM in experiment [5]; over 52.7 µM in experiment [6]. Besides, the TGI in experiment [7] is over 31.5 µM; in experiment [8], 50.4 µM; in experiment [9], 12.7 µM; in experiment [10], over 25.7 µM; in experiment [11], 15.6 µM; in experiment [12], 27.3 µM. In addition, the TGI in experiment [13] is 33.1 µM.

Turning to `CC1=NN(c2nc(N)nc(/C(C#N)=C\c3ccc([N+](=O)[O-])s3)n2)C(C)(C)C1`, the TGI is 26.8 µM in experiment [1]; over 21 µM in experiment [2]; 0.379 µM in experiment [3]; over 100 µM in experiment [4]; 1.21 µM in experiment [5]; 12.1 µM in [6]. Besides, the TGI in [7] came to 0.355 µM; in experiment [8] it was 0.467 µM; in experiment [9], 23.1 µM; in experiment [10] it was 0.264 µM; in experiment [11] it was 3.87 µM; in experiment [12], 1.75 µM. The molecule also yielded a TGI in experiment [13] of 1.93 µM.

For `[N-]=[N+]=Nc1c([N+](=O)[O-])c(=O)n(-c2ccccc2)c2ccccc12`, the TGI in experiment [1] is over 100 µM; in experiment [2], 56.3 µM; in [3], 59.1 µM; in experiment [4] it was 59.6 µM; in experiment [5], 80.5 µM; in experiment [6], 49.4 µM. Moreover, the TGI in experiment [7] was 64.8 µM; in experiment [8], 47.1 µM; in experiment [9], 95.5 µM; in experiment [10] it was over 100 µM; in experiment [11] it was 35 µM; in experiment [12], over 100 µM. In [13], this molecule registered a TGI of 68.1 µM.

On to `BrC1=C(Br)C2(SCCS2)[C@H]2C[C@@H]1c1ccccc12`, for which the TGI in experiment [1], in [2], in experiment [3], in experiment [4], in experiment [5] and in experiment [6] was over 100 µM each time. For the same molecule, the total growth inhibition concentration (TGI) in [7], in [8], in [9], in [10], in experiment [11] and in experiment [12] was over 100 µM in each case. For the same molecule, the TGI in experiment [13] was over 85.9 µM.
